Counter-ions that a name gives are not always drawn.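 Values below derive from 48-hour exposures of cells grown in 96-well plates, with endpoints linearly interpolated between the two concentrations bracketing the appropriate inhibition level. GI50 marks 50% less growth.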 Active and inactive are the calls of the source. Rule as the data show it: active = GI50 up to about 1.1 µM and inactive = higher. Square brackets hold non-standard residues; d marks the D form. Residues, ends and D or L forms follow the SMILES beside them. Peptide text beside a SMILES is read from it. *: point of attachment. Boc = CC(C)(C)OC(=O)*
Legend:
Assay in all cases: DTP human tumour cell line panel, 48 h
HCT-15 = tested on: HCT-15
CCRF-CEM = tested on: CCRF-CEM
M14 = tested on: M14
HOP-92 = tested on: HOP-92
OVCAR-3 = tested on: OVCAR-3
NCI-H460 = tested on: NCI-H460
IGROV-1 = tested on: IGROV-1
NCI-H522 = tested on: NCI-H522
HT-29 = tested on: HT-29
ACHN = tested on: ACHN
MDA-MB-435 = tested on: MDA-MB-435
SF-539 = tested on: SF-539
KM12 = tested on: KM12
HOP-62 = tested on: HOP-62
OVCAR-5 = tested on: OVCAR-5
EKVX = tested on: EKVX
SK-MEL-2 = tested on: SK-MEL-2
SF-268 = tested on: SF-268
MDA-N = tested on: MDA-N

Compound | GI50 (HCT-15) [µM] | GI50 (CCRF-CEM) | GI50 (M14) | GI50 (HOP-92) | GI50 (OVCAR-3) | GI50 (NCI-H460) | GI50 (IGROV-1) | GI50 (NCI-H522) | GI50 (HT-29) | GI50 (ACHN) | GI50 (MDA-MB-435) | GI50 (SF-539) | GI50 (KM12) | GI50 (HOP-62) | GI50 (OVCAR-5) | GI50 (EKVX) | GI50 (SK-MEL-2) | GI50 (SF-268) | GI50 (MDA-N)
Cc1nc2ccccc2c(=O)n1-c1n[nH]c2ccccc12 | > 100 | > 100 µM (inactive) | > 100 µM (inactive) | > 100 µM (inactive) | > 100 µM (inactive) | > 100 µM (inactive) | > 100 µM (inactive) | > 100 µM (inactive) | > 100 µM (inactive) | > 100 µM (inactive) | > 100 µM (inactive) | > 100 µM (inactive) | > 100 µM (inactive) | > 100 µM (inactive) | > 100 µM (inactive) | > 100 µM (inactive) | > 100 µM (inactive) | > 100 µM (inactive) | –
C=CCC(C)C12CCNC(Cc3ccc(O)cc31)C2C (stereo unspecified) | > 100 | > 100 µM (inactive) | 64.4 µM (inactive) | 56.1 µM (inactive) | – | 89.9 µM (inactive) | > 100 µM (inactive) | – | 79.1 µM (inactive) | > 100 µM (inactive) | > 100 µM (inactive) | > 100 µM (inactive) | > 100 µM (inactive) | > 100 µM (inactive) | > 100 µM (inactive) | > 100 µM (inactive) | – | > 100 µM (inactive) | –
CC1(C)C2CCC(N)(C2)C1N (stereo unspecified) | > 100 | > 100 µM (inactive) | > 100 µM (inactive) | 21.1 µM (inactive) | > 100 µM (inactive) | > 100 µM (inactive) | > 100 µM (inactive) | – | – | > 100 µM (inactive) | > 100 µM (inactive) | – | > 100 µM (inactive) | > 100 µM (inactive) | > 100 µM (inactive) | > 100 µM (inactive) | > 100 µM (inactive) | – | > 100 µM (inactive)
COC(=O)/C=C/c1cnc2c(c1)oc(=O)n2C | > 100 | > 100 µM (inactive) | > 100 µM (inactive) | > 100 µM (inactive) | > 100 µM (inactive) | > 100 µM (inactive) | > 100 µM (inactive) | – | > 100 µM (inactive) | > 100 µM (inactive) | > 100 µM (inactive) | > 100 µM (inactive) | > 100 µM (inactive) | > 100 µM (inactive) | > 100 µM (inactive) | > 100 µM (inactive) | > 100 µM (inactive) | > 100 µM (inactive) | > 100 µM (inactive)
O=c1cc(NCC2CCCCC2)[nH]c(=O)[nH]1 | > 100 | > 100 µM (inactive) | > 100 µM (inactive) | 95.1 µM (inactive) | > 100 µM (inactive) | > 100 µM (inactive) | > 100 µM (inactive) | – | – | > 100 µM (inactive) | > 100 µM (inactive) | > 100 µM (inactive) | > 100 µM (inactive) | > 100 µM (inactive) | > 100 µM (inactive) | > 100 µM (inactive) | – | > 100 µM (inactive) | > 100 µM (inactive)
COc1ccc([N+]2=NC(c3ccc([N+](=O)[O-])cc3)=NN(c3ccccc3)C2)cc1 | 24.8 | 24.9 µM (inactive) | – | – | 42.5 µM (inactive) | 25.9 µM (inactive) | 39 µM (inactive) | 2.69 µM (inactive) | 34 µM (inactive) | 42.5 µM (inactive) | – | – | – | > 100 µM (inactive) | > 100 µM (inactive) | 44.4 µM (inactive) | – | 97.7 µM (inactive) | –
c1ccc2c(c1)ccc1nc3ccccn3c12 | > 100 | > 100 µM (inactive) | > 100 µM (inactive) | > 100 µM (inactive) | > 100 µM (inactive) | > 100 µM (inactive) | > 100 µM (inactive) | – | > 100 µM (inactive) | > 100 µM (inactive) | > 100 µM (inactive) | > 100 µM (inactive) | > 100 µM (inactive) | > 100 µM (inactive) | > 100 µM (inactive) | 68.5 µM (inactive) | – | > 100 µM (inactive) | –
CC(O)c1c2c(cc3c1CC1(C3)Cc3cc4c(c(C(C)O)c3C1)CCC4)CCC2 (stereo unspecified) | 14.8 | 5.82 µM (inactive) | 18.6 µM (inactive) | 15.3 µM (inactive) | 12.4 µM (inactive) | – | 20.3 µM (inactive) | 13.1 µM (inactive) | 12.9 µM (inactive) | 11.2 µM (inactive) | 15.8 µM (inactive) | 22.4 µM (inactive) | 21.8 µM (inactive) | 20.7 µM (inactive) | 22.5 µM (inactive) | 27.9 µM (inactive) | 26.9 µM (inactive) | – | –
O=C1Nc2cccc(C(F)(F)F)c2/C1=N/Nc1ccccc1[N+](=O)[O-] | 34.4 | 40.6 µM (inactive) | > 100 µM (inactive) | – | 17.5 µM (inactive) | 17.8 µM (inactive) | 0.404 µM (active) | 22.4 µM (inactive) | 36.4 µM (inactive) | 16.1 µM (inactive) | 18.7 µM (inactive) | – | 5.97 µM (inactive) | 25.1 µM (inactive) | 86.5 µM (inactive) | 11.6 µM (inactive) | > 100 µM (inactive) | 40.9 µM (inactive) | 17.7 µM (inactive)
COC(=O)c1c(O)ccc2c1c1c(n2CCc2ccccc2)C(=O)c2ccccc2C1 | 19.7 | 21.4 µM (inactive) | 22.3 µM (inactive) | 10.9 µM (inactive) | 16.1 µM (inactive) | 16.7 µM (inactive) | 19.6 µM (inactive) | – | 24.4 µM (inactive) | – | 18.2 µM (inactive) | 24.8 µM (inactive) | 31.8 µM (inactive) | 21.2 µM (inactive) | – | – | 15.8 µM (inactive) | 13.7 µM (inactive) | 24.4 µM (inactive)
COc1cc2c(cc1NC(=O)c1ccccc1)c1c(n2S(=O)(=O)c2ccccc2)CCN(S(=O)(=O)c2ccccc2)C1 | > 100 | > 100 µM (inactive) | > 100 µM (inactive) | > 100 µM (inactive) | > 100 µM (inactive) | > 100 µM (inactive) | > 100 µM (inactive) | – | > 100 µM (inactive) | > 100 µM (inactive) | > 100 µM (inactive) | – | > 100 µM (inactive) | > 100 µM (inactive) | > 100 µM (inactive) | – | > 100 µM (inactive) | > 100 µM (inactive) | –
O=C(CN1C(=O)c2ccccc2C1=O)OCC1CCCN2CCCCC12 (stereo unspecified) | > 100 | > 100 µM (inactive) | – | > 100 µM (inactive) | – | > 100 µM (inactive) | – | – | > 100 µM (inactive) | > 100 µM (inactive) | > 100 µM (inactive) | > 100 µM (inactive) | > 100 µM (inactive) | – | – | > 100 µM (inactive) | > 100 µM (inactive) | > 100 µM (inactive) | > 100 µM (inactive)
COc1ccc(C(=O)/C=C2\Nc3cccnc3N\C2=C/C(=O)c2ccc(OC)cc2)cc1 | 32.1 | > 100 µM (inactive) | 20.9 µM (inactive) | 53.1 µM (inactive) | 14.8 µM (inactive) | 9.18 µM (inactive) | 5.11 µM (inactive) | – | 14.5 µM (inactive) | 17.7 µM (inactive) | 20.3 µM (inactive) | 12.5 µM (inactive) | 23.4 µM (inactive) | 4.94 µM (inactive) | 42.3 µM (inactive) | 20.8 µM (inactive) | 23.7 µM (inactive) | 7.8 µM (inactive) | 64.7 µM (inactive)
CC(=O)Nc1[nH]n(C)c(=O)c1-c1nnc(C)s1 | > 100 | > 100 µM (inactive) | > 100 µM (inactive) | > 100 µM (inactive) | > 100 µM (inactive) | > 100 µM (inactive) | > 100 µM (inactive) | > 100 µM (inactive) | > 100 µM (inactive) | > 100 µM (inactive) | – | > 100 µM (inactive) | > 100 µM (inactive) | > 100 µM (inactive) | > 100 µM (inactive) | > 100 µM (inactive) | > 100 µM (inactive) | > 100 µM (inactive) | –
COC(=O)C(Cc1c[nH]c2ccccc12)NC(=O)C(Cc1c[nH]c2ccccc12)NC(=O)C(Cc1c[nH]c2ccccc12)NC(=O)C(Cc1c[nH]c2ccccc12)NC(=O)OC(C)(C)C (stereo unspecified) (Boc-WWWW-OMe; configuration not given here) | > 100 | 3.78 µM (inactive) | 30.1 µM (inactive) | – | 15.1 µM (inactive) | 24.9 µM (inactive) | 35.3 µM (inactive) | 25.4 µM (inactive) | 22.9 µM (inactive) | 57.5 µM (inactive) | 23.4 µM (inactive) | – | – | 25.6 µM (inactive) | > 100 µM (inactive) | – | – | 28.2 µM (inactive) | 18.5 µM (inactive)
N=C(N)NCCC[C@H]1NC(=O)[C@@H](CCC(=O)O)NC(=O)[C@@H](CC(=O)O)NC(=O)[C@@H](CCC(=O)O)NC(=O)[C@H](Cc2c[nH]c3ccccc23)NC1=O (cyclo(W[dE][dD][dE][dR])) | > 7.5 | > 7.5 µM (inactive) | > 7.5 µM (inactive) | > 7.5 µM (inactive) | > 7.5 µM (inactive) | > 7.5 µM (inactive) | > 7.5 µM (inactive) | > 7.5 µM (inactive) | > 7.5 µM (inactive) | > 7.5 µM (inactive) | > 7.5 µM (inactive) | > 7.5 µM (inactive) | > 7.5 µM (inactive) | > 7.5 µM (inactive) | > 7.5 µM (inactive) | > 7.5 µM (inactive) | 0.191 µM (active) | > 7.5 µM (inactive) | –
NCCCCN [PUTRESCINE HYDROCHLORIDE] | > 100 | > 100 µM (inactive) | > 100 µM (inactive) | > 100 µM (inactive) | > 100 µM (inactive) | > 100 µM (inactive) | > 100 µM (inactive) | > 100 µM (inactive) | > 100 µM (inactive) | > 100 µM (inactive) | 8.36 µM (inactive) | > 100 µM (inactive) | 16.3 µM (inactive) | > 100 µM (inactive) | > 100 µM (inactive) | > 100 µM (inactive) | > 100 µM (inactive) | > 100 µM (inactive) | –

Source: ChEMBL document CHEMBL1201862, “PubChem BioAssay data set” (2004)
